{"source": "patent US8080582B2", "about": "“Derivatives of 8-epiblechnic acid and their effects on down-regulation of endothelin (ETA) receptor mRNA” (ScinoPharm Taiwan Ltd., priority 2008, dated 2011)", "format_in_all_cases": "cell-based", "key": {"[1]": {"test_system": "Vascular smooth muscle cells (cell line A10)", "test": "MTT cell viability / observation of normal vascular smooth muscle cells (A10)", "details": "48 hrs; for Precipitation in the treated sample: dissolved in DMSO, added to A10 cells, 0.2 mM", "experimental": "(§1) The cells (1×10^5 cells/well in 24-well plates) were cultured for 24 hrs. Different concentrations of Sal-B and its analogs (0, 50, 100, 150, 200, 250 μg/ml) were added to treat the cells. After treating for 48 hrs, 100 μl MTT solution was added to each well, and the plate was placed in an incubator for 1-4 hrs. After adding 400 μl DMSO to treat the cells for 30 min., 200 μl samples were collected and placed in a 96-well plate to conduct the absorption measurement at 550 nm.\nCell viability testing (MTT testing) was employed to determine the cytotoxicity of Sal-B and EBA to vascular smooth muscle cells. Vascular smooth muscle cells (cell line A10) were treated with Sal-B and EBA at concentrations of 0, 0.1, 0.2, 0.3, 0.4, and 0.5 mM. After treating for 48 hrs, MTT was added and allowed to react for 3 hrs at 37° C. Then, DMSO was added and allowed to react for 30 min., after that, the OD570 absorption values were measured. Cell viability was still 90% when the drug concentration reached 0.2 mM.\nSal-B's analogs, compounds A to F, were dissolved in DMSO, and then added to A10 cells to observe the results."}, "[2]": {"test_system": "nasopharyngeal cancer cells (Hone-1)", "test": "MTT cell viability, nasopharyngeal cancer cells", "details": "Hone-1 cells, summary statement", "experimental": "as §1\n(§2) Cancer cells were treated with Sal-B and EBA at concentrations of 0, 0.1, 0.2, 0.3, 0.4, 0.5 mM. After treating for 48 hrs, MTT was added, and then allowed to react for 3 hrs at 37° C. After that, DMSO was added and allowed to react for 30 min., the OD570 absorption values were measured. Cell viability was above 80% when nasopharyngeal cancer cells (Hone-1) were treated with […] Sal-B and EBA. […] But the cell viability remained above 70% for treating with 0.1 mM and 0.2 mM EBA. Similar results were obtained when prostate cancer cells (PC-3) were treated with the drugs: Cell viability was above 80% for treating PC-3 cells with 0.2 mM Sal-B or EBA."}, "[3]": {"test_system": "prostate cancer cells (PC-3)", "test": "MTT cell viability, prostate cancer cells", "details": "for Viability of PC-3 cells as the concentration is increased: PC-3, MTT, increasing concentration, FIG. 1", "experimental": "as §1, §2\nMTT testing was employed to observe the viability of cancer cells after treating with Sal-B and the six synthetic analogs."}, "[4]": {"test_system": "normal mammary gland cell line (A1N4)", "test": "Cytotoxicity test on normal mammary gland cells", "details": "A1N4 normal mammary gland cells, FIG. 2", "experimental": "as §1"}, "[5]": {"test_system": "ETAR mRNA expression", "test": "Real-time quantitative RT-PCR of ETAR mRNA in smooth muscle cells (A10)", "details": "A10 smooth muscle cells, 0.2 mM, 48 hrs, vs DMSO control, FIG. 4, read-out: ETAR mRNA remaining after the treatment", "experimental": "Extraction of cellular RNA: Subculturing smooth muscle cells to 100-mm culture dishes. After the cells had filled the culture dishes, Sal-B and its analogs were added to treat the cells for 48 hrs. After that, 1×PBS solutions were added to wash the cells three times. After adding 1 ml TRIzol, the cells were scraped off and placed in 1.5 ml micro-centrifuge tubes. Following the addition of 0.2 ml chloroform to each tube, the tubes were shaken, left at room temperature for 3 min., and run in a centrifuge at 12,000 rpm for 15 min. The supernatant liquid was removed and the cells placed in new micro-centrifuge tubes. After adding an amount of isopropyl alcohol equivalent to one-half of the volume of the supernatant liquid, and mixing until homogeneous, the samples were allowed to stand at room temperature for 10 min. The supernatant liquid was removed after centrifugation at 12,000 rpm for 10 min. 1 ml 70% alcohol was added to wash out salts, followed by centrifugation for 5 min. and removal of supernatant liquid. The samples were dissolved in 50 μl DEPC-H2O after drying.\n(1) cDNA synthesis: 1 μl Random hexamer primer (20 μM) and 1 μl dNTP(10 mm) were added to 3 μg RNA, which was allowed to react at 65° C. for 5 min., and then placed on ice promptly. After the addition of 2 μl 10× reaction buffer, 0.5 μl RNaseOUT (40 unit/μl) and 1 μl SuperScript III RT (200 unit/μl), the solution was mixed until homogeneous, and allowed to react at 50° C. for 50 min. After that, the mixture was heated to 85° C. for 5 min. to terminate the enzymatic reaction. The samples were preserved at −70° C. for later use.\n(2) PCR quantitative analysis: After adding 7.5 μl PCR primer mix (400 nm each) and 15 μl SYBR Green dye reagent to the 7.5 μl cDNA template, the solution was placed in Bio-Rad's iCycler for PCR reaction. The resulting data was inputted into Gene Expression Analysis for iCycler iQ Real-Time PCR Detection System for quantitative analysis of gene expression.\nFurthermore, after treating vascular smooth muscle cells with 100 μg/ml of either Sal-B or EBA for 48 hrs, the identical concentrations of cellular whole RNA were sampled for the synthesis of cDNA by using reverse transcriptase. The PCR method was employed to determine the amounts of endothelin receptor mRNA expression. […] For the analysis of ETAR mRNA expression by using the real-time PCR method, vascular smooth muscle cells at full confluence 100-mm culture dishes were treated with 100 μg/ml of either Sal-B or EBA for 48 hrs. The identical concentrations of cellular whole RNA were sampled for the synthesis of cDNA by using reverse transcriptase. The real-time PCR method was used to compare the amounts of ETAR mRNA expression.\nThe different analogs, compounds A to F, had different effects on ETAR mRNA expression. The control group represented treating smooth muscle cells (A10) with DMSO, and the positive control group represented treating the cells with Sal-B. The smooth muscle cells were treated with 0.2 mM Sal-B and compounds A to F for 48 hrs. The identical concentrations of cellular RNA were sampled for the synthesis of cDNA by using reverse transcriptase. The real-time PCR method was employed to determine the amounts of ETAR mRNA expression. Compared with the control group, compound B had the least effect on down-regulating ETAR mRNA expression, as approximately 50% of the ETAR mRNA remained after the treatment. […]"}, "[6]": {"test_system": "PC-3 cancer cells", "test": "Flow cytometry cell cycle analysis (sub-G1, apoptosis) of PC-3 cells", "details": "PC-3, 0.01 mM, 48 hrs, PI flow cytometry; control around 1.18%", "experimental": "After suspending cells, the precooled 70% ethanol was used for fixing the cells. After centrifuging the mixture for 10 min. at 3,000 rpm, supernatant liquid was removed. Propidium iodide (PI) buffer (0.1% Triton X-100, 0.2 μg/ml RNase A, 40 μg/ml PI) was added, and then the solution was kept still at 37° C. for 30 min. After that, the cell cycle analysis was conducted by flow cytometry.\nFlow cytometry was used to determine whether Sal-B and its analogs induced apoptosis in cancer cells. After treating PC-3 cancer cells with 0.4 mM Sal-B and EBA, and 0.01 mM compounds B and A for 48 hrs, the cells were collected and allowed to react with PI buffer for 30 min. Flow cytometry was then employed to measure the cell cycle. Approximately 5.16% of PC-3 cancer cells were at sub-G1 phase after treating with Sal-B, roughly 5.27% were at sub-G1 phase after treating with compound B, and roughly 8.54% were at sub-G1 phase after treating with compound A. However, for the control, only around 1.18% of the cells were at sub-G1 phase. Therefore, Sal-B and its analogs (compounds B and A) thus caused a significant increase in the percentage of cells at sub-G1 phase."}}, "note": "Entries after “also recorded” stand apart in the source; their conditions may differ.", "data": [{"molecule": "COC(=O)C(Cc1ccc(OC)c(OC)c1)NC(=O)/C=C/c1ccc(OC)c2c1C(C(=O)NC(Cc1ccc(OC)c(OC)c1)C(=O)OC)C(c1ccc(OC)c(OC)c1)O2", "note": "(stereo not drawn) [Compound A, 2-(3,4-dimethoxyphenyl)-7-methoxy-4-{(E)-2-[1-(methoxycarbonyl)-2-(3,4-dimethoxyphenyl)-ethylcarbamoyl]-vinyl}-2,3-dihydro-benzofuran-3-carboxylic acid-1-(methoxycarbonyl)-[2-(3,4-dimethoxyphenyl)-ethyl]-amide]", "values": [{"measurement": "Cytotoxicity / cell death in A10 cells", "setting": "[1]; A10 cells, 0.2 mM in DMSO", "result": "high level of cell death; also recorded: relatively high cytotoxicity"}, {"measurement": "Inhibition of growth of Hone-1 cells", "setting": "[2]", "result": "significantly inhibit the growth"}, {"measurement": "Viability of PC-3 cells as the concentration is increased", "setting": "[3]", "result": "led to the similar results"}, {"measurement": "Toxicity to PC-3 cells relative to Sal-B", "setting": "[3]; PC-3 cells, compared with Sal-B", "result": "ten times more toxic to PC-3 cells than Sal-B"}, {"measurement": "Cytotoxicity to normal cells", "setting": "[4]", "result": "low toxicity to normal cells"}, {"measurement": "mrna remaining at 200 µM", "setting": "[5]", "result": "< 20", "unit": "%"}, {"measurement": "PC-3 cancer cells at sub-G1 phase", "setting": "[6]", "result": "roughly 8.54%"}]}, {"molecule": "COC(=O)C1Cc2cc(OC)c(OC)cc2CN1C(=O)/C=C/c1cc(OC)c2c(c1)C(C(=O)N1Cc3cc(OC)c(OC)cc3CC1C(=O)OC)C(c1ccc(OC)c(OC)c1)O2", "note": "(stereo not drawn) [Compound E]", "values": [{"measurement": "Precipitation in the treated sample", "setting": "[1]", "result": "significant precipitation"}]}, {"molecule": "COC(=O)C(Cc1ccccc1)NC(=O)/C=C/c1ccc(OC)c2c1C(C(=O)NC(Cc1ccc(OC)c(OC)c1)C(=O)OC)C(c1ccc(OC)c(OC)c1)O2", "note": "(stereo not drawn) [Compound B, 2-(3,4-dimethoxyphenyl)-7-methoxy-4-{(E)-2-[1-(methoxycarbonyl)-2-phenyl-ethylcarbamoyl]-vinyl}-2,3-dihydro-benzofuran-3-carboxylic acid-1(methoxycarbonyl)-[2-(3,4-dimethoxyphenyl)-ethyl]-amide]", "values": [{"measurement": "Precipitation in the treated sample", "setting": "[1]", "result": "significant precipitation"}, {"measurement": "Inhibition of growth of Hone-1 cells", "setting": "[2]", "result": "significantly inhibit the growth"}, {"measurement": "Viability of PC-3 cells as the concentration is increased", "setting": "[3]", "result": "led to the similar results"}, {"measurement": "Cytotoxicity to normal cells", "setting": "[4]", "result": "relatively toxic to normal cells"}, {"measurement": "mrna remaining at 200 µM", "setting": "[5]", "result": "~50", "unit": "%"}, {"measurement": "PC-3 cancer cells at sub-G1 phase", "setting": "[6]", "result": "roughly 5.27%"}]}, {"molecule": "COC(=O)C(Cc1ccc(OC)c(OC)c1)NC(=O)/C=C/c1cc(OC)c2c(c1)C(C(=O)NC(Cc1ccc(OC)c(OC)c1)C(=O)OC)C(c1ccc(OC)c(OC)c1)O2", "note": "(stereo not drawn) [Compound C, 2-(3,4-dimethoxyphenyl)-7-methoxy-5-{(E)-2-[1-(methoxycarbonyl)-2-(3,4-dimethoxyphenyl)-ethylcarbamoyl]-vinyl}-2,3-dihydro-benzofuran-3-carboxylic acid-1-(methoxycarbonyl)-[2-(3,4-dimethoxyphenyl)-ethyl]-amide]", "values": [{"measurement": "mrna remaining at 200 µM", "setting": "[5]", "result": "< 20", "unit": "%"}]}]}
